Experimental data: patent US8952024B2, “Herbicidal pyrimidone derivatives” (E I du Pont de Nemours and Company, priority 2009, dated 2015)

Key:
Assay type in all cases: in vivo
[1] = system: ducksalad (Heteranthera limosa); experiment: Test B flooded paddy test; details: for Plant response rating, Flood, Ducksalad: 250 g ai/ha, flooded paddy test, visual rating on 0 to 100 scale (0 no effect, 100 complete control) after 13 to 15 days; for Plant response rating, Ducksalad: Flood (flooded paddy test), 13 to 15 days
Procedure, shortened: (§1)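 2-leaf seedlings; pots flooded 3 cm over soil at treatment; cpd dosed into floodwater, depth kept constant. Greenhouse 13–15 d. Visual rating vs untreated controls, 0 = no effect, 100 = complete control.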

[2] = system: rice (Oryza sativa); experiment: Test B flooded paddy test; details: for Plant response rating, Flood, Rice: 250 g ai/ha, flooded paddy test, visual rating on 0 to 100 scale (0 no effect, 100 complete control) after 13 to 15 days; for Plant response rating, Rice: Flood (flooded paddy test), 13 to 15 days
Procedure, shortened: as §1

[3] = system: barnyardgrass (Echinochloa crus-galli); experiment: Test B flooded paddy test; details: for Plant response rating, Flood, Barnyardgrass: 250 g ai/ha, flooded paddy test, visual rating on 0 to 100 scale (0 no effect, 100 complete control) after 13 to 15 days; for Plant response rating, Barnyardgrass: Flood (flooded paddy test), 13 to 15 days
Procedure, shortened: as §1

[4] = system: umbrella sedge (Cyperus difformis); experiment: Test B flooded paddy test; details: for Plant response rating, Flood, Sedge, Umbrella: 250 g ai/ha, flooded paddy test, visual rating on 0 to 100 scale (0 no effect, 100 complete control) after 13 to 15 days; for Plant response rating, Sedge, Umbrella: Flood (flooded paddy test), 13 to 15 days
Procedure, shortened: as §1

[5] = system: pigweed (Amaranthus retroflexus); experiment: Test A pre-/postemergence plant response; details: for Pigweed plant response rating: visual injury, 0 to 100 scale (0 no effect, 100 complete control), approx. ten days
Procedure, shortened: (§2)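 Plants grown from seed in a loam soil and sand mix received test compounds both as a preemergence soil spray and, at the same time, as a postemergence spray at the one- to two-leaf stage. Injury was judged visually against untreated controls roughly ten days later, 0 meaning no effect and 100 complete control.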

[6] = system: barnyardgrass (Echinochloa crus-galli); experiment: Test A pre-/postemergence plant response; details: for Barnyardgrass plant response rating: visual injury, 0 to 100 scale (0 no effect, 100 complete control), approx. ten days
Procedure, shortened: as §2

[7] = system: giant foxtail (Setaria faberii); experiment: Test A pre-/postemergence plant response; details: for Foxtail, Giant plant response rating: visual injury, 0 to 100 scale (0 no effect, 100 complete control), approx. ten days
Procedure, shortened: as §2

[8] = system: wheat (Triticum aestivum); experiment: Test A pre-/postemergence plant response; details: for Wheat plant response rating: visual injury, 0 to 100 scale (0 no effect, 100 complete control), approx. ten days
Procedure, shortened: as §2

[9] = system: velvetleaf (Abutilon theophrasti); experiment: Test A pre-/postemergence plant response; details: for Velvetleaf plant response rating: visual injury, 0 to 100 scale (0 no effect, 100 complete control), approx. ten days
Procedure, shortened: as §2

[10] = system: large crabgrass (Digitaria sanguinalis); experiment: Test A pre-/postemergence plant response; details: for Crabgrass, Large plant response rating: visual injury, 0 to 100 scale (0 no effect, 100 complete control), approx. ten days
Procedure, shortened: as §2

[11] = system: morningglory (Ipomoea spp.); experiment: Test A pre-/postemergence plant response; details: for Morningglory plant response rating: visual injury, 0 to 100 scale (0 no effect, 100 complete control), approx. ten days
Procedure, shortened: as §2

[12] = system: corn (Zea mays); experiment: Test A pre-/postemergence plant response; details: for Corn plant response rating: visual injury, 0 to 100 scale (0 no effect, 100 complete control), approx. ten days
Procedure, shortened: as §2

[13] = 62 g ai/ha, scale of 0 to 100 where 0 is no effect and 100 is complete control
[14] = 125 g ai/ha, scale 0 to 100, 0 is no effect, 100 is complete control
[15] = Flood, 31 g ai/ha, scale 0 to 100 (0 no effect, 100 complete control)
[16] = Postemergence, 125 g ai/ha, 0 to 100 scale where 0 is no effect and 100 is complete control
[17] = Preemergence, 125 g ai/ha, 0 to 100 scale, 0 = no effect, 100 = complete control
[18] = Preemergence, 500 g ai/ha, 0 to 100 scale, 0 = no effect, 100 = complete control

CCCn1c(-c2cccs2)ncc(C(=O)c2cnn(CC)c2O)c1=O [Compound 221]
20: Ducksalad plant response rating [1, 15] | Plant response rating, Flood, Barnyardgrass [3] | Barnyardgrass plant response rating ([6]; Postemergence, 500 g ai/ha) | Plant response rating, Velvetleaf [9, 17] | Crabgrass, Large plant response rating ([10]; Postemergence, 500 g ai/ha) | Morningglory plant response rating ([11]; Postemergence, 500 g ai/ha) | Corn plant response rating ([12]; Postemergence, 500 g ai/ha)
15: Plant response rating, Flood, Rice [2]
60: Plant response rating, Sedge, Umbrella [4, 13] | Plant response rating, Pigweed [5, 18]
0: Plant response rating, Rice [2, 13] | Plant response rating, Rice [2, 14] | Rice plant response rating [2, 15] | Plant response rating, Barnyardgrass [3, 13] | Plant response rating, Barnyardgrass [3, 14] | Barnyardgrass plant response rating [3, 15] | Sedge, Umbrella plant response rating [4, 15] | Plant response rating, Pigweed [5, 17] | Plant response rating, Barnyardgrass [6, 17] | Plant response rating, Barnyardgrass [6, 18] | Plant response rating, Foxtail, Giant [7, 16] | Plant response rating, Foxtail, Giant [7, 17] | Plant response rating, Wheat [8, 16] | Wheat plant response rating ([8]; Postemergence, 500 g ai/ha) | Plant response rating, Wheat [8, 17] | Plant response rating, Wheat [8, 18] | Plant response rating, Crabgrass, Large [10, 17] | Plant response rating, Morningglory [11, 17] | Plant response rating, Morningglory [11, 18] | Plant response rating, Corn [12, 16] | Plant response rating, Corn [12, 17] | Plant response rating, Corn [12, 18]
65: Plant response rating, Ducksalad [1, 13]
10: Plant response rating, Barnyardgrass [6, 16] | Foxtail, Giant plant response rating ([7]; Postemergence, 500 g ai/ha) | Plant response rating, Foxtail, Giant [7, 18] | Plant response rating, Crabgrass, Large [10, 16] | Plant response rating, Crabgrass, Large [10, 18] | Plant response rating, Morningglory [11, 16]
70: Plant response rating, Flood, Ducksalad [1] | Plant response rating, Ducksalad [1, 14] | Pigweed plant response rating ([5]; Postemergence, 500 g ai/ha)
80: Plant response rating, Velvetleaf [9, 16] | Velvetleaf plant response rating ([9]; Postemergence, 500 g ai/ha)
30: Plant response rating, Velvetleaf [9, 18]
40: Plant response rating, Pigweed [5, 16]
75: Plant response rating, Flood, Sedge, Umbrella [4] | Plant response rating, Sedge, Umbrella [4, 14]

Cc1ccc(C)c(-n2c(-c3ccccc3)ncc(C(=O)c3cnoc3C3CC3)c2=O)c1 [Compound 222]
20: Plant response rating, Crabgrass, Large [10, 17] | Plant response rating, Crabgrass, Large [10, 18]
10: Plant response rating, Barnyardgrass [6, 16]
0: Plant response rating, Flood, Rice [2] | Plant response rating, Rice [2, 13] | Plant response rating, Flood, Barnyardgrass [3] | Plant response rating, Barnyardgrass [3, 13] | Plant response rating, Pigweed [5, 17] | Plant response rating, Pigweed [5, 18] | Plant response rating, Barnyardgrass [6, 17] | Plant response rating, Foxtail, Giant [7, 16] | Plant response rating, Wheat [8, 16] | Wheat plant response rating ([8]; Postemergence, 500 g ai/ha) | Plant response rating, Wheat [8, 17] | Plant response rating, Wheat [8, 18] | Plant response rating, Velvetleaf [9, 17] | Plant response rating, Crabgrass, Large [10, 16] | Plant response rating, Morningglory [11, 17] | Plant response rating, Corn [12, 16] | Corn plant response rating ([12]; Postemergence, 500 g ai/ha) | Plant response rating, Corn [12, 17] | Plant response rating, Corn [12, 18]
30: Plant response rating, Sedge, Umbrella [4, 13] | Plant response rating, Foxtail, Giant [7, 17] | Crabgrass, Large plant response rating ([10]; Postemergence, 500 g ai/ha) | Plant response rating, Morningglory [11, 16]
60: Plant response rating, Barnyardgrass [6, 18] | Plant response rating, Foxtail, Giant [7, 18] | Plant response rating, Velvetleaf [9, 16] | Plant response rating, Velvetleaf [9, 18]
50: Plant response rating, Ducksalad [1, 13]
65: Plant response rating, Flood, Ducksalad [1]
90: Velvetleaf plant response rating ([9]; Postemergence, 500 g ai/ha)
80: Barnyardgrass plant response rating ([6]; Postemergence, 500 g ai/ha)
40: Plant response rating, Flood, Sedge, Umbrella [4] | Plant response rating, Pigweed [5, 16] | Foxtail, Giant plant response rating ([7]; Postemergence, 500 g ai/ha) | Morningglory plant response rating ([11]; Postemergence, 500 g ai/ha) | Plant response rating, Morningglory [11, 18]
70: Pigweed plant response rating ([5]; Postemergence, 500 g ai/ha)
